Test results taken from ChEMBL document CHEMBL1201862, “PubChem BioAssay data set” (2004).
Counter-ions that a name gives are not always drawn.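 96-well plates; 48 h exposure; 5 concentrations. Endpoints by linear interpolation between flanking doses. Not reached: highest tested concentration assigned. GI50 = concentration required for 50% inhibition of growth.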 Active and inactive are the calls of the source. Cut-off read from the data, not from the text of the source: active = GI50 up to about 1.1 µM and inactive = higher.

Tests used:
Experiment in all cases: DTP human tumour cell line panel, 48 h
[1] = system: CAKI-1
[2] = system: HCC 2998
[3] = system: HL-60
[4] = system: HOP-62
[5] = system: K562
[6] = system: KM12
[7] = system: MOLT-4
[8] = system: NCI-H226
[9] = system: NCI-H23
[10] = system: NCI-H460
[11] = system: NCI-H522
[12] = system: RPMI-8226
[13] = system: SF-268
[14] = system: SK-MEL-28
[15] = system: SK-MEL-5
[16] = system: SNB-75
[17] = system: UACC-62

Measured: GI50

C1=c2ccccc2=C2C(=C(c3ccccc3)C(c3ccccc3)=NN2c2ccccc2)S1
inactive: [1] > 100 µM | [2] > 100 µM | [3] > 100 µM | [4] > 100 µM | [5] > 100 µM | [6] > 100 µM | [7] > 100 µM | [8] > 100 µM | [9] > 100 µM | [10] > 100 µM | [11] > 100 µM | [12] > 100 µM | [13] > 100 µM | [14] > 100 µM | [15] > 100 µM | [16] > 100 µM | [17] > 100 µM

O=C1NC2OCC(O)C(O)C2O1 (centres undefined)
inactive: [1] > 100 µM | [2] > 100 µM | [3] > 100 µM | [4] > 100 µM | [5] > 100 µM | [6] > 100 µM | [7] > 100 µM | [9] > 100 µM | [10] > 100 µM | [11] > 100 µM | [13] > 100 µM | [14] > 100 µM | [15] > 100 µM | [16] > 100 µM | [17] > 100 µM

Clc1ccc(/N=N/c2nc3ccccc3nc2/N=N/c2ccc(Cl)cc2Cl)c(Cl)c1
inactive: [2] > 100 µM | [3] 31.5 µM | [4] > 100 µM | [5] 44.6 µM | [6] > 100 µM | [7] 29.4 µM | [8] > 100 µM | [9] > 100 µM | [10] > 100 µM | [11] 60.1 µM | [12] > 100 µM | [13] > 100 µM | [14] > 100 µM | [16] 22.9 µM

CN(C)c1nc(Oc2nc(N(C)C)nc(N(C)C)n2)nc(N(C)C)n1
inactive: [1] > 100 µM | [2] 88.7 µM | [3] 52.5 µM | [5] 59.2 µM | [6] 62.5 µM | [7] > 100 µM | [8] > 100 µM | [9] 72.6 µM | [10] > 100 µM | [11] 70.8 µM | [12] 63.5 µM | [13] > 100 µM | [14] > 100 µM | [15] > 100 µM | [16] 35.9 µM | [17] > 100 µM

O=c1c(Sc2c(O)c3ccccc3c3ccccc3c2=O)c(O)c2ccccc2c2ccccc12
inactive: [1] 80.4 µM | [2] 32.7 µM | [3] 15.6 µM | [4] 29.5 µM | [5] 33.7 µM | [6] 93.1 µM | [7] 16.8 µM | [9] 23.7 µM | [10] 17.6 µM | [11] 13.4 µM | [12] 19.8 µM | [13] 20 µM | [14] 33 µM | [15] 29.9 µM | [16] > 100 µM | [17] 29.2 µM

C=CCc1cc(OC)c2c(c1)C(O)CC(c1ccc(OC)c(OC)c1)O2 (centres undefined)
inactive: [1] 73.3 µM | [2] > 100 µM | [3] 24.9 µM | [4] > 100 µM | [5] 16.3 µM | [6] > 100 µM | [7] 38.6 µM | [8] > 100 µM | [9] > 100 µM | [10] > 100 µM | [11] > 100 µM | [13] > 100 µM | [14] > 100 µM | [15] 58.3 µM | [16] 89.5 µM | [17] > 100 µM

CCCCCCCCCCCc1c(O)c(=O)c2c(oc3c(=O)c(CCCCCCCCCCC)c(O)c(=O)c3n2-c2ccc(N(C)C)cc2)c1=O
inactive: [1] 15.7 µM | [3] 27.1 µM | [4] 20.7 µM | [5] 52.8 µM | [6] 12.9 µM | [7] > 100 µM | [8] 19.3 µM | [9] 28.7 µM | [10] 18.6 µM | [11] 58.3 µM | [12] 91.2 µM | [13] 22.2 µM | [14] 18 µM | [15] 18.7 µM | [16] 23.7 µM | [17] 18 µM

CC(C)NC1CCCCC2c3ccccc3C12O (centres undefined)
inactive: [3] > 100 µM | [4] > 100 µM | [5] > 100 µM | [6] > 100 µM | [7] > 100 µM | [8] > 100 µM | [9] > 100 µM | [10] > 100 µM | [11] > 100 µM | [12] > 100 µM | [13] > 100 µM | [14] > 100 µM | [15] > 100 µM | [16] > 100 µM | [17] > 100 µM

CCN(CC)c1ccc(/N=C2\C=C(Cl)C(=O)c3ncccc32)c(C)c1
inactive: [1] 3.33 µM | [3] 1.86 µM | [4] 5.37 µM | [5] 2.28 µM | [7] 2.88 µM | [9] 3.24 µM | [10] 6.56 µM | [12] 3.37 µM | [14] 8.2 µM | [15] 3.18 µM | [16] 14.4 µM | [17] 3.8 µM

O=C(CCCCCCCCC(=O)OCCCn1cc(C(=O)NC(=O)OCc2ccccc2)c(=O)[nH]c1=O)OCCCn1cc(C(=O)NC(=O)OCc2ccccc2)c(=O)[nH]c1=O
inactive: [1] > 100 µM | [2] > 100 µM | [3] > 100 µM | [4] > 100 µM | [5] > 100 µM | [6] > 100 µM | [7] > 100 µM | [8] > 100 µM | [9] > 100 µM | [10] > 100 µM | [11] > 100 µM | [12] > 100 µM | [13] > 100 µM | [14] > 100 µM | [15] > 100 µM | [16] 54.1 µM | [17] > 100 µM

NCc1cc(O)c(O)c(O)c1
inactive: [1] > 100 µM | [3] 80.7 µM | [4] > 100 µM | [5] 43.1 µM | [6] > 100 µM | [7] > 100 µM | [8] > 100 µM | [10] > 100 µM | [11] > 100 µM | [12] 33.7 µM | [13] > 100 µM | [14] > 100 µM | [15] > 100 µM | [16] > 100 µM | [17] 59.3 µM

O=C(O)C12C3CCCC1C2CC3 (centres undefined)
inactive: [1] > 100 µM | [3] > 100 µM | [4] > 100 µM | [5] > 100 µM | [6] > 100 µM | [7] > 100 µM | [8] > 100 µM | [9] > 100 µM | [10] > 100 µM | [11] > 100 µM | [12] > 100 µM | [13] > 100 µM | [14] > 100 µM | [15] > 100 µM | [16] > 100 µM | [17] > 100 µM

CS(=O)(=O)Sc1ccc(Cl)cc1
inactive: [1] 10.7 µM | [2] 11.2 µM | [3] 4.42 µM | [4] 2.83 µM | [5] 10.2 µM | [6] 7.19 µM | [7] 3.53 µM | [8] 7.48 µM | [9] 13.8 µM | [10] 10.9 µM | [11] 3.24 µM | [12] 10.9 µM | [13] 1.63 µM | [14] 11.5 µM | [15] 7.83 µM | [16] 3.21 µM

O=C(/C=C/c1ccccc1)NC1C=Nc2ccc(Cl)cc2NC1=O (centres undefined)
inactive: [1] 22.6 µM | [2] 21.2 µM | [3] 5.3 µM | [4] 47.9 µM | [5] 9.42 µM | [6] 22.2 µM | [7] 4.54 µM | [8] 30.8 µM | [9] 27.5 µM | [10] 20.9 µM | [11] 9.64 µM | [13] 36.2 µM | [14] 37.9 µM | [15] 16.5 µM | [16] 15.6 µM | [17] 26.2 µM

Nc1nc(Cl)c2ncn(CCCC(c3ccccc3)P(=O)(O)O)c2n1 (centres undefined)
inactive: [1] > 100 µM | [2] > 100 µM | [3] > 100 µM | [4] > 100 µM | [5] > 100 µM | [6] > 100 µM | [9] > 100 µM | [10] > 100 µM | [11] > 100 µM | [12] > 100 µM | [13] > 100 µM | [14] > 100 µM | [15] > 100 µM | [16] > 100 µM | [17] > 100 µM

CCCCCC#COC1CC(C)CC[C@@H]1C(C)C (some centres undefined)
inactive: [1] 50.8 µM | [2] > 100 µM | [3] 23 µM | [4] 47.9 µM | [5] 27.9 µM | [6] 98.9 µM | [8] > 100 µM | [9] > 100 µM | [10] 23.8 µM | [11] 24.5 µM | [12] 26.4 µM | [13] > 100 µM | [14] > 100 µM | [15] > 100 µM | [16] 75.9 µM | [17] 62.7 µM

CC1=NCCc2c1[nH]c1cc(O)ccc21 [HARMALOL HYDROCHLORIDE]
inactive: [1] > 100 µM | [2] > 100 µM | [3] > 100 µM | [4] > 100 µM | [5] > 100 µM | [6] > 100 µM | [7] > 100 µM | [8] > 100 µM | [9] > 100 µM | [10] > 100 µM | [12] > 100 µM | [13] > 100 µM | [14] > 100 µM | [15] > 100 µM | [16] > 100 µM | [17] > 100 µM
